Patent US20260315431A1, “NANOMATERIAL ENCAPSULATED BIOFILM INHIBITORS FOR DENTAL CARIES TREATMENT” (THE UAB RESEARCH FOUNDATION, priority 2023, published 2026)
Where two headings read alike, the source gives them in different places.

How the values were obtained:
S. mutans UA159 biofilms = experiment: Fluorescence microscopy of S. mutans UA159 biofilms (Syto-9, Cascade Blue-dextran, propidium iodide); type: cell-based, Streptococcus mutans; details: 16 h
Description: FIGS. 1.6A-E illustrate the biofilm inhibitory activities of compound HA5. FIG. 1.6A illustrates that S. mutans UA159 were co-incubated with HA5 at various concentrations and biofilm formation was measured at OD562 using the crystal violet protocol. FIG. 1.6B illustrates Gtfs precipitated from S. mutans culture were co-incubated with HA5 at various concentrations and the glucan production was quantified using cascade blue staining and subsequent image processing with ImageJ. FIG. 1.6C illustrates representative fluorescence microscopy images of UA159 biofilms after 16 h of treatment with various concentrations of HA5. Bacterial cells were stained with Syto-9 (green, panel I); glucans were stained with Cascade Blue-dextran conjugated dye (blue, panel II); eDNA was stained with propidium iodide (red, panel III) and a merged image of all three staining images (panel IV). FIG. 1.6D illustrates S. mutans UA159, S. gordonii DL1 and S. sanguinis SK36 were co-incubated with HA5 at 50 μM and 100 μM and their growth were measured at OD470. FIG. 1.6E illustrates the chemical structure of HA5. Each of the biofilm, glucan and growth assays were conducted in triplicate and statistical significance was tested with one-way ANOVA. p<0.0001. […]
HA5 inhibits S. mutans UA159 biofilms, glucan production and eDNA levels. The antibiofilm activities of HA5 were further investigated by fluorescence microscopy imaging. […] In addition, propidium iodide was used to determine the presence of extracellular DNA (eDNA) in S. mutans biofilms. […] These findings reaffirm that HA5 inhibited S. mutans biofilms by preventing the synthesis of glucans and minimizing the presence of eDNA, two integral biofilm matrix elements crucial for S. mutans biofilm formation.
In addition, propidium iodide was used to determine the presence of extracellular DNA (eDNA) in S. mutans biofilms. […] These findings reaffirm that compound HA6 inhibited S. mutans biofilms by preventing the synthesis of glucans and minimizing the presence of eDNA, two integral biofilm matrix elements crucial for S. mutans biofilm formation.
Prior to in vivo evaluations, the biofilm inhibitory activities of PEHA5 were investigated. […] In addition, propidium iodide was used to determine the presence of eDNA in S. mutans biofilms. […] The effects of unloaded polymersome vesicles on S. mutans biofilm were compared with the control (1% DMSO) and the biofilm inhibitory activities of PEHA5 and HA5 at a single dose 50 μM concentration. […] In addition, the effect of PEHA5 on the planktonic growth of two commensal Streptococci, S. gordonii and S. Sanguinis were compared with the control (1% DMSO) and HA5 at a single treatment dose of 50 μM.
The biofilm inhibitory activities of PEHA6 were investigated. […] In addition, propidium iodide was used to determine the presence of eDNA in S. mutans biofilms. […] The effects of PEHA6 on S. mutans biofilm were compared with the control (1% DMSO) and the biofilm inhibitory activities of HA5 and HA6 side by side at a single dose, 50 μM concentration. […] In addition, the effect of PEHA6 on the planktonic growth of S. mutans was compared with HA5, HA6 at 50 μM.

S. mutans UA159 = experiment: Biofilm inhibition, S. mutans UA159 (crystal violet, OD562); type: cell-based, Streptococcus mutans; details: for inhibition at 50 µM: UA159, 50 μM
Description: The bacterial strains, S. mutans UA159, S. gordonii DL1, and S. sanguinis SK36 were inoculated statically at 37° C. under 5% CO2 in Todd Hewitt Broth (THB) for 24 h. The cultures were then diluted with fresh THB (1:5) and reinoculated until optical density at 470 nm (OD470) reached 1. The optical density was read using BioTek 800TS microplate reader at 470 nm for bacterial growth and 562 nm for biofilm stained with crystal violet. Data was plotted in Graphpad Prism9.
Biofilm inhibition assays. Biofilm inhibition assays were performed in polystyrene microtiter 96 well plates. Stock solutions were prepared in chemically defined medium (CDM, JRH Biosciences, Lenexa, KS) with 2% sucrose, 1% bacteria cultures and various concentrations of the small molecule inhibitors to examine their activity against biofilm formation as described^69, 70. These stocks were assayed in 96 well plates in triplicate and incubated at 37° C. and 5% CO2 for 16 h. After reading optical density for bacterial growth, the plate was gently washed with water, dried, and stained with crystal violet, and then gently rinsed again with deionized water leaving the stained biofilm at the bottoms of the wells. Biofilms was dissolved in 200 μL of 30% acetic acid and absorbance at 562 nm was used read to determine biofilm biomass. Each assay was carried out at least in triplicate. Biofilm inhibitory concentration (IC50) of the compounds was determined by serial dilutions.
All bacterial strains (S. mutans UA159, S. gordonii DL1, and S. sanguinis SK36) were inoculated statically at 37° C. under 5% CO2 environment in Todd Hewitt Broth (THB) for 24 h^[61]. The cultures were then diluted with fresh THB (1:5) and reinoculated until the optical density at 470 nm reaches 1. The optical density was read using BioTek 800 TS absorbance reader at 470 nm for bacterial growth and 562 nm for biofilm stained with crystal violet. Data was plotted in Prism 10.0.2.
Biofilm inhibition assays were performed in polystyrene microtiter 96-well plates. Stock solutions were prepared in chemically defined medium (CDM) with 1% sucrose, 1% bacteria cultures and various concentrations of the small molecule inhibitors to examine their activity against biofilm formation as described^[62, 63]. These stocks were assayed in 96 well plates in triplicate and incubated at 37° C. and 5% CO2 for 16 h. After reading optical density for bacterial growth, the plate was washed, dried, and stained with 0.1% crystal violet which was again rinsed well with deionized water leaving the stained biofilm at the bottoms of the wells. This biofilm was dissolved in 200 μL of 30% acetic acid and absorbance at 562 nm was read to determine amount of biofilm formation. Each assay was carried out at least in triplicate. Biofilm inhibitor concentration (IC50) of the compounds was determined by serial dilutions from 0 μM-50 μM (1% DMSO).

[1] = Streptococcus mutans, UA159, read-out: Biofilm IC50
[2] = Streptococcus mutans, S. mutans UA159 biofilm, read-out: Biofilm IC50

Structure (SMILES) | Syto-9 stained bacterial cells within biofilms (S. mutans UA159 biofilms; 5 μM) | eDNA (propidium iodide) (S. mutans UA159 biofilms; 5 μM) | glucans (Cascade Blue-dextran) (S. mutans UA159 biofilms; 5 μM) | Syto-9 stained bacterial cells within biofilms (S. mutans UA159 biofilms; 50 μM) | eDNA (propidium iodide) (S. mutans UA159 biofilms; 50 μM) | glucans (Cascade Blue-dextran) (S. mutans UA159 biofilms; 50 μM) | S. mutans biofilm inhibition (S. mutans UA159; 25 μM) [%] | inhibition at 50 µM (S. mutans UA159; Streptococcus mutans) [%] | IC50 (S. mutans UA159; [1]) [µM] | inhibition at 25 µM (S. mutans UA159; Streptococcus mutans, UA159, read-out: S. mutans biofilm inhibition, 25 μM) [%] | IC50 (S. mutans UA159; [2]) [µM] | Syto-9 stained bacterial cells within biofilms (S. mutans UA159 biofilms; 15 μM) | eDNA (propidium iodide) (S. mutans UA159 biofilms; 15 μM) | glucans (Cascade Blue-dextran) (S. mutans UA159 biofilms; 15 μM) | Syto-9 stained bacterial cells within biofilms (S. mutans UA159 biofilms; 30 μM) | eDNA (propidium iodide) (S. mutans UA159 biofilms; 30 μM) | glucans (Cascade Blue-dextran) (S. mutans UA159 biofilms; 30 μM)
O=C1/C(=C/c2cc(O)c(O)cc2O)Oc2ccccc21 [HA5, 2-[(2′,4′,5′-Trihydroxyphenyl)methylidene]-2,3-dihydro-1-benzofuran-3-one] | significant reduction in biofilms | noticeable reduction of eDNA | significantly reduced | complete inhibition | almost complete absence of eDNA | no glucan formation was evident | 90 | > 95 | 6.42 | 80 | 6.42 |  |  |  |  |  | 
O=C1/C(=C/c2cc(O)c(O)c(O)c2)Oc2ccccc21 [HA6, 2-[(3′,4′,5′-Trihydroxyphenyl)methylidene]-2,3-dihydro-1-benzofuran-3-one] |  |  |  |  |  |  |  | > 95 | 18.9 |  | 18.9 | significant reduction in biofilms | noticeable reduction of eDNA | significantly reduced | complete inhibition | almost complete absence of eDNA | no glucan formation was evident
